The values below come from ChEMBL document CHEMBL1667853, “Design and synthesis of potent Gram-negative specific LpxC inhibitors” (Bioorg Med Chem Lett, 2011).

Assay [1] is described as follows: Inhibition of Aquifex aeolicus LpxC.
The subject of assay [2] is Escherichia coli. Nature of the assay: Antimicrobial activity against Escherichia coli HS294 by broth dilution assay. The class given is functional. A general note: In broth dilution the organism is exposed to a series of concentrations in liquid medium.
Assay [3] has as its system Escherichia coli. The assay is described as follows: Antimicrobial activity against Escherichia coli ATCC 25922 by broth dilution assay. It is filed as functional.
Assay [4] has as its system Escherichia coli. The assay is described as follows: Antimicrobial activity against wild type Escherichia coli by broth dilution assay. The class given is functional.
The subject of assay [5] is Escherichia coli. Nature of the assay: Antimicrobial activity against multidrug-resistant Escherichia coli by broth dilution assay. The class given is functional.
Assay [6] has as its system Escherichia coli. Nature of the assay: Antimicrobial activity against ESBL producing Escherichia coli by broth dilution assay. It is filed as functional.
For assay [7], the system named is Pseudomonas aeruginosa. The assay is described as follows: Antimicrobial activity against wild type Pseudomonas aeruginosa by broth dilution assay. It is filed as functional.
Assay [8] has as its system Pseudomonas aeruginosa. Nature of the assay: Antimicrobial activity against multidrug-resistant Pseudomonas aeruginosa by broth dilution assay. It is filed as functional.
In assay [9] the test system is Klebsiella pneumoniae. The assay is described as follows: Antimicrobial activity against wild type Klebsiella pneumoniae by broth dilution assay. The class given is functional.
Assay [10] deals with Klebsiella pneumoniae. The assay is described as follows: Antimicrobial activity against ESBL producing Klebsiella pneumoniae by broth dilution assay. The class given is functional.
Another assay relates to Proteus vulgaris. Nature of the assay: Antimicrobial activity against wild type Proteus vulgaris by broth dilution assay. The class given is functional.
The next assay relates to Serratia marcescens. Nature of the assay: Antimicrobial activity against wild type Serratia marcescens by broth dilution assay. The class given is functional.
A further assay has as its system Klebsiella aerogenes. The assay is described as follows: Antimicrobial activity against wild type Enterobacter aerogenes by broth dilution assay. The class given is functional.
For the next assay, the system named is Enterobacter cloacae. Nature of the assay: Antimicrobial activity against ESBL producing Enterobacter cloacae by broth dilution assay. The class given is functional.
Assay [11] concerns Acinetobacter calcoaceticus. The assay is described as follows: Antimicrobial activity against wild type Acinetobacter calcoaceticus by broth dilution assay. It is filed as functional.
For a further assay, the system named is Acinetobacter baumannii. The assay is described as follows: Antimicrobial activity against wild type Acinetobacter baumannii by broth dilution assay. The class given is functional.
Assay [12] relates to Stenotrophomonas maltophilia. The assay is described as follows: Antimicrobial activity against wild type Stenotrophomonas maltophilia by broth dilution assay. It is filed as functional.
The target of assay [13] is T1, UDP-3-O-acyl-N-acetylglucosamine deacetylase (Escherichia coli K-12, UniProt P0A725).
T1 sequence (P0A725 whole entry): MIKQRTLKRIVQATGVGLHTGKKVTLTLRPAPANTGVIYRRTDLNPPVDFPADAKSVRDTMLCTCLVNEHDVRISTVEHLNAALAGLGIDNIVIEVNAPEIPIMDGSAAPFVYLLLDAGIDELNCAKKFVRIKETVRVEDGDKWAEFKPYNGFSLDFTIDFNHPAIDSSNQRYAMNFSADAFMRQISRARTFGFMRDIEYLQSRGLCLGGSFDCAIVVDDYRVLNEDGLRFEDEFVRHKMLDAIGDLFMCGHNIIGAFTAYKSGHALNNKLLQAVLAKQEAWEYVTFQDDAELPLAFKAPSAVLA
Nature of the assay: Inhibition of Escherichia coli LpxC.

Structures are written as SMILES. Values after ≈ are worked out from the molar mass of the structure shown. A value given as a limit tells only on which side of the number the result lay.

In general, Kd refers to a measure of binding affinity in units of concentration. One may read the MIC as the lowest concentration that inhibits growth of the organism. As a reminder, the IC50 is the midpoint of a concentration-inhibition curve. Read a low IC50 as greater potency.

As to `CCCCCCCOc1cccc(C(=O)O)c1`, in assay [1], the Kd was determined as 2000 nM.

With `C[C@@H](O)[C@@H](NC(=O)c1ccc(C#Cc2ccccc2)cc1)C(=O)NO`, the MIC in the assay with Escherichia coli [2] was 0.02 µg/mL (≈ 0.0591 µM); in the assay with Escherichia coli [3], 0.08 µg/mL (≈ 0.236 µM); against Escherichia coli [4], 0.16 µg/mL (≈ 0.473 µM); with Escherichia coli [5] it was 0.63 µg/mL (≈ 1.86 µM); against Escherichia coli [6], 0.313 µg/mL (≈ 0.925 µM); against Pseudomonas aeruginosa [7], 10 µg/mL (≈ 29.6 µM). Also, the minimum inhibitory concentration (MIC) against Pseudomonas aeruginosa [8] turned out to be 0.63 µg/mL (≈ 1.86 µM); in the assay with Klebsiella pneumoniae [9], 1.25 µg/mL (≈ 3.69 µM); against Klebsiella pneumoniae [10], 0.63 µg/mL (≈ 1.86 µM); with Proteus vulgaris it was 1.25 µg/mL (≈ 3.69 µM); with Serratia marcescens, 1.25 µg/mL (≈ 3.69 µM); against Klebsiella aerogenes, 2.5 µg/mL (≈ 7.39 µM). Moreover, the MIC against Enterobacter cloacae was 0.31 µg/mL (≈ 0.916 µM); in assay [11] it was 1.25 µg/mL (≈ 3.69 µM); with Acinetobacter baumannii, above 20 µg/mL; in [12], 5 µg/mL (≈ 14.8 µM).

The compound `C[C@@H](N)[C@@H](NC(=O)N1CCN(c2ccc(C#Cc3ccccc3)cc2)CC1)C(=O)NO` displayed an IC50 in assay [13] of 0.6 nM. In addition, the minimum inhibitory concentration (MIC) was determined as 0.4 µg/mL (≈ 0.949 µM) against Escherichia coli [2]; 1.56 µg/mL (≈ 3.7 µM) in the assay with Escherichia coli [3]; 1.56 µg/mL (≈ 3.7 µM) in the assay with Escherichia coli [4]; 3.13 µg/mL (≈ 7.43 µM) in the assay with Escherichia coli [5]; 1.56 µg/mL (≈ 3.7 µM) with Escherichia coli [6]; 12.5 µg/mL (≈ 29.7 µM) in the assay on Pseudomonas aeruginosa [7]. Besides, the MIC against Pseudomonas aeruginosa [8] turned out to be 3.13 µg/mL (≈ 7.43 µM); in the assay with Klebsiella pneumoniae [9], 25 µg/mL (≈ 59.3 µM); with Klebsiella pneumoniae [10], 12.5 µg/mL (≈ 29.7 µM); against Proteus vulgaris it was 6.25 µg/mL (≈ 14.8 µM); against Serratia marcescens it was 12.5 µg/mL (≈ 29.7 µM); against Klebsiella aerogenes, 25 µg/mL (≈ 59.3 µM). The minimum inhibitory concentration (MIC) was 3.13 µg/mL (≈ 7.43 µM) in the assay on Enterobacter cloacae, 25 µg/mL (≈ 59.3 µM) in assay [11], 25 µg/mL (≈ 59.3 µM) in the assay on Acinetobacter baumannii and above 50 µg/mL in assay [12].

As for `C[C@@H](O)[C@@H](NC(=O)N1CCC(c2ccc(-c3ccccc3)cc2)CC1)C(=O)NO`, the IC50 in assay [13] came to 13.8 nM. Moreover, the MIC with Escherichia coli [2] came out at 0.8 µg/mL (≈ 2.01 µM); against Escherichia coli [3], 6.25 µg/mL (≈ 15.7 µM); against Escherichia coli [4], 1.56 µg/mL (≈ 3.92 µM); against Escherichia coli [5] it was 3.13 µg/mL (≈ 7.87 µM); in the assay with Escherichia coli [6] it was 3.13 µg/mL (≈ 7.87 µM); against Pseudomonas aeruginosa [7], 3.13 µg/mL (≈ 7.87 µM). The MIC in the assay with Pseudomonas aeruginosa [8] was above 12.5 µg/mL; in the assay on Klebsiella pneumoniae [9] it was above 100 µg/mL; with Klebsiella pneumoniae [10], 12.5 µg/mL (≈ 31.4 µM); with Proteus vulgaris, 3.13 µg/mL (≈ 7.87 µM); with Serratia marcescens it was 6.25 µg/mL (≈ 15.7 µM); against Klebsiella aerogenes, above 100 µg/mL. The MIC in the assay with Enterobacter cloacae is 3.13 µg/mL (≈ 7.87 µM); in [11], above 100 µg/mL; against Acinetobacter baumannii, above 100 µg/mL; in [12], above 100 µg/mL.

`CC(C)(O)[C@@H](NC(=O)N1CCN(c2ccc(C#Cc3ccccc3)cc2)CC1)C(=O)NO` registered an IC50 in assay [13] of 0.3 nM. The MIC in the assay on Escherichia coli [2] is 0.1 µg/mL (≈ 0.229 µM); in the assay on Escherichia coli [3] it was 0.8 µg/mL (≈ 1.83 µM); with Escherichia coli [4], 0.8 µg/mL (≈ 1.83 µM); in the assay with Escherichia coli [5] it was 1.56 µg/mL (≈ 3.57 µM); in the assay with Escherichia coli [6] it was 1.56 µg/mL (≈ 3.57 µM); against Pseudomonas aeruginosa [7], above 50 µg/mL. For the same compound, the minimal inhibitory concentration (MIC) with Pseudomonas aeruginosa [8] came to 6.25 µg/mL (≈ 14.3 µM); against Klebsiella pneumoniae [9], 12.5 µg/mL (≈ 28.6 µM); with Klebsiella pneumoniae [10] it was 6.25 µg/mL (≈ 14.3 µM); in the assay on Proteus vulgaris, 3.13 µg/mL (≈ 7.17 µM); with Serratia marcescens, 6.25 µg/mL (≈ 14.3 µM); in the assay on Klebsiella aerogenes, 12.5 µg/mL (≈ 28.6 µM). Also, the MIC against Enterobacter cloacae was 6.25 µg/mL (≈ 14.3 µM); in assay [11], 25 µg/mL (≈ 57.3 µM); against Acinetobacter baumannii it was above 50 µg/mL; in [12], 25 µg/mL (≈ 57.3 µM).
